From patent US20060246047A1, “Peptide wirh apoptosis-inhibiting activity” (priority 2003, published 2006) come the findings set out here.

The test system of experiment [1] is HeLa cells. Put plainly: STS-induced apoptosis in Hela cells, modified TAT-ART peptides (Example 8). The class given is cell-based. The conditions noted are these: 100, 300 or 1000 nM, 0.2 μM STS, 24 hours. As to the method:
The modified TAT-ART1320 peptides used were TAT-ART1420 (SEQ ID NO: 25) and TAT-ART1320P13V (SEQ ID NO: 26), synthesized with a peptide synthesizer.
Hela cells (1×10^5 cells) were seeded in 12-well plates and incubated for 24 hours. Subsequently, cells were pre-treated for 1 hour by adding TAT-ART1320 or its modified peptide at a final concentration of 100, 300, or 1000 nM, followed by the addition of 0.2 μM STS and incubation for 24 hours. Cells without the addition of TAT-ART1320 or STS, together with cells without the addition of TAT-ART1320, were prepared as controls. Following incubation, cell death was evaluated by the trypan blue exclusion method.

Experiment [2] deals with T1, Bax (Homo sapiens, UniProt Q07812). The experiment can be described thus: Apoptosis-suppressive activity, summary statements without a stated test. Type of experiment: cell-based. The arrangement: expressed in transfected cells; host or cells: HEK 293T. The conditions noted are these: summary statement.
T1 sequence (Q07812 whole entry, the tested form may be a part): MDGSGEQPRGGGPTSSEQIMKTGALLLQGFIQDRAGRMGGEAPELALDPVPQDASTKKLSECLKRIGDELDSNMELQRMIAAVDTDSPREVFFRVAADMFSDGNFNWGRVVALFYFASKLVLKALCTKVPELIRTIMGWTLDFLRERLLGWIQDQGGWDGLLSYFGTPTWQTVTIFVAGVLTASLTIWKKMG
Experiment [3] relates to brain ischemia model gerbils. Put plainly: Brain ischemia model, 4 min bilateral common carotid artery occlusion and reperfusion. The class given is in vivo, gerbil. How it is done:
Next, to confirm the effect of the peptide according to the present invention on apoptosis-induced diseases, such as neurodegenerative diseases, using a model of brain ischemia induced by a 4 min occlusion of the bilateral common carotid arteries in gerbils the influence of TAT-ART1320 ([…]) on the neurological symptom scores after reperfusion and on delayed neuronal death in hippocampus four days after reperfusion.
Thirteen-week-old male gerbils (SPF, Japan SLC, Inc.) were kept over a week in a barrier system animal room with controlled temperature (23±2° C), humidity (55±15%), ventilation (at least 5 air changes/hour), and light (12 hour light period, 6:30 a.m. to 6:30 p.m.). The gerbils thus maintained, weighing 60 to 80 g, were used as test animals. Food and water were provided at libitum.
Under ether anesthesia, test animals underwent a midline skin incision in the neck to expose the bilateral internal carotid arteries (the ether anesthesia was stopped on exposure of the bilateral internal carotid arteries), which were occluded bilaterally with artery forceps, to induce brain ischemia. Reperfusion was initiated by removing the artery forceps 4 min after occlusion and the skin was sutured, immediately followed by administration of TAT-ART1320 or saline. Subsequently, test animals were warmed under an infrared lamp until their activity was recovered.
TAT-ART1320 was prepared for administration by dissolving 3 or 30 mg of TAT-ART1320 in 10 ml of saline. This solution was administered at a dose of 10 ml/kg BW. Immediately after reperfusion TAT-ART1320 was intravenously injected into the caudal vain of each animal at 3 mg/kg BW or 30 mg/kg BW, followed by another intravenous injection after 5 hours. (The animals (n=13) receiving TAT-ART1320 at 3 mg/kg BW and animals receiving TAT-ART1320 at 30 mg/kg BW were called the 3 mg/kg group and the 30 mg/kg group, respectively.) The next day, intravenous injection was switched to subcutaneous injection and the same doses of TAT-ART1320 were administered twice at intervals of 5 hours, followed by once-daily SC injection. Animals (n=13: control group) receiving only saline were used as controls.
Immediately after reperfusion and subsequent administration of TAT-ART1320 or saline, observation of symptoms of the central nervous system (disturbance of consciousness, convulsions, suppression of motor responses, blepharoptosis) was started. […]
The bilateral hippocampal regions were excised from the fixed brain and 4 μm paraffin sections (about 1.5 mm posterior from the bregma) were prepared from each hippocampus. […] Subsequently, the length of bilateral hippocampal CA1 regions was measured with an image analyzer (MacSCOPE). Further, the number of survived neurons in each section was counted under a microscope. […]

For experiment [4], the target named is T1, Bax. The experiment can be described thus: Apoptosis induced by overexpression of myc-Bax in HEK 293T cells, trypan blue exclusion. Type of experiment: cell-based. The arrangement: expressed in transfected cells; host or cells: HEK 293T. The conditions noted are these: 100, 300 or 1000 nM, 24 hours. How it is done: (§1) HEK 293T cells (1×10^5 cells) were seeded in 12-well plates and incubated for 24 hours. Subsequently, myc, myc-Bax, or myc-Bak was overexpressed within cells by introducing pCI-myc, pCI-myc-Bax, or pCI-myc-Bakplasmid respectively into HEK 293 T cells. After incubation for 17 hours, TAT-ART1320 was added at a final concentration of 100, 300, or 1000 nM, followed by further incubation for 24 hours. Cells without the addition of TAT-ARTI320 were used as controls. Following incubation, cell death was evaluated by the trypan blue exclusion method.

The test system of experiment [5] is HEK 293T cells. The experiment can be described thus: STS-induced Bax-dependent apoptosis in HEK 293T cells, trypan blue exclusion. The conditions noted are these: 0.5 μM STS, 24 hours. The class given is cell-based. As to the method: (§2) It is known that apoptosis induced by staurosporine (STS) is Bax-dependent. Thus, it was examined whether TAT-ART1320 can suppress STS-induced apoptosis.
(§3) HEK 293T cells or HeLa cells, at 5×10^4 cells each, were seeded in 12-well plates and incubated for 24 hours. Subsequently, cells were pre-treated by adding TAT-ART1320 at a final concentration of 100, 300, or 1000 nM, followed by further incubation for 24 hours. Then STS was added to HEK 293T cells and HeLa cells at 0.5 μM and 0.2 μM, respectively, followed by incubation for 24 hours. Cells without the addition of TAT-ART1320 or STS, together with cells without the addition of TAT-ART1320, were prepared as controls. Following incubation, cell death was evaluated by the trypan blue exclusion method.

Experiment [6] deals with HeLa cells. Put plainly: STS-induced Bax-dependent apoptosis in HeLa cells, trypan blue exclusion. The class given is cell-based. The conditions noted are these: 0.2 μM STS, 24 hours. How it is done: as §2, §3
Experiment [7] addresses T1, Bax. The experiment can be described thus: STS-induced mitochondrial translocation of Bax in COS7 cells, confocal microscopy. Type of experiment: cell-based. More on the design: expressed in transfected cells. The conditions noted are these: 1000 nM pretreatment 1 hour, COS7 with pCI-myc-Bax. How it is done: It is considered that, in order for Bax to induce apoptosis, it is essential for Bax to localize to mitochondria. Thus, the effect of TAT-ARTI320 on STS-induced mitochondrial translocation of Bax was examined.
COS7 cells (4×10^4 cells) were seeded in 12-well plates and incubated for 24 hours and then transfected with 1 μg of the pCI-myc-Bax gene. Subsequently, after further incubation for 23 hours, cells were pretreated for 1 hour with 1000 nM TAT-ART1320. Cells without TAT-ART1320 pretreatment were also prepared as controls. Further, […] of STS and 100 nM MitoTracker Orange (manufactured by Molecular Probes) were added and, after one hour, cells were fixed with 3% formaldehyde solution. Cells without the addition of STS were also prepared as controls.

The target of experiment [8] is T2, Bak (Homo sapiens, UniProt Q16611).
T2 construct: expressed in transfected cells; host or cells: HEK 293T
T2 sequence (Q16611 1-211): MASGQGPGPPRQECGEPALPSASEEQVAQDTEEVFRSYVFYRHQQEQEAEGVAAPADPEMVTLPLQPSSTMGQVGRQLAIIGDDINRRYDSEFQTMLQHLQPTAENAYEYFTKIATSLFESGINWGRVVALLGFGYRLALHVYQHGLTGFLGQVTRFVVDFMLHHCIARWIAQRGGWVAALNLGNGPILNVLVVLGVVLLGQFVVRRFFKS
Put plainly: Apoptosis induced by overexpression of myc-Bak in HEK 293T cells, trypan blue exclusion. Type of experiment: cell-based. The conditions noted are these: 100, 300 or 1000 nM, 24 hours. As to the method: as §1

For experiment [9], the target named is T1, Bax. Put plainly: Bax-induced apoptosis in pCI-Bax-transfected HEK 293T cells with HTA1320 added, trypan blue exclusion. The class given is cell-based. The arrangement: expressed in transfected cells; host or cells: HEK 293T. To be noted: survival after 40 hours. As to the method:
It was examined whether or not HTAI320, prepared in Example 3, inhibits Bax-induced apoptosis-promoting activity. HEK 293T cells were plated at 1×10^5 cells per well on 12-well plastic dishes and incubated overnight. Subsequently, cells were transfected with pCI-Bax by lipofection using opti-MEM (manufactured by GibcoBRL) and Lipofectamine (manufactured by GibcoBRL). After five hours, the medium was changed and HTA1320 were added at various concentrations. Subsequently, the cell survival rate after 40 hours was evaluated by the trypan blue exclusion method. As a result, HTA1320 inhibited Bax-induced apoptosis-promoting activity.

Consider “TAT-ART1420: modified TAT-ART1320 peptide, ART positions 14 to 20, synthesized with a peptide synthesizer (YGRKKRRQRRRTSSEQIM; TAT-ART1420)”, for which, in experiment [1], the “suppression of STS-induced apoptosis compared with TAT-ART1320 (SEQ ID NO: 2 peptide)” value was “equal to or greater than that of TAT-ART1320”.
As to “SEQ ID NO: 1: peptide from threonine in the 14th position to methionine in the 20th position of the ART sequence (TSSEQIM; Inventor Imoto, Masaya Inventor Tabe, Hirokazu Inventor Tashiro, Etsu Inventor OHMORI, Yusuke; listed as Homo sapiens)”, in [2], the apoptosis-suppressive activity entry was “stronger apoptosis- suppressive activity than the peptide (SEQ ID NO: 2)”. Moreover, the “suppression of STS-induced apoptosis compared with TAT-ART1320 (SEQ ID NO: 2 peptide)” value in [1] is reported as “stronger suppressive activity”.
Take “TAT-ART1320: HIV-TAT sequence linked to ART positions 13 to 20, synthesized with a peptide synthesizer (YGRKKRRQRRRPTSSEQIM; TAT-ART1320)”: the “change of neurological symptoms scores with dose” value in experiment [3] (3 mg/kg and 30 mg/kg groups) is “dose-dependent decrease”. Besides, in experiment [3] (30 mg/kg group, four days after reperfusion, control 15.4±5.2), the “number of survived neurons per unit length in hippocampal CA1” value is given as 74.5±23.1. The neurological symptoms score in experiment [3] (30 mg/kg group, i.v. then s.c., control 8.2±1.4, P<0.05) is listed as 2.8±0.6. In [3] (3 and 30 mg/kg groups, four days after reperfusion), the “neuronal death in hippocampal CA1” value is on record as “significantly suppresses neuronal death”. Moreover, in experiment [4], the “inhibition of apoptosis induced by overexpression of Bax” value is listed as “inhibits”. The “concentrations suppressing STS-induced apoptosis” value in experiment [5] lay within 1 to 100 nM; in [6], 100 to 1000 nM. Also, the “STS-induced mitochondrial localization / translocation of Bax” value in experiment [7] is recorded as “Bax did not localize to mitochondria”. For the same molecule, the “inhibition of apoptosis induced by overexpression of Bak” value in [8] is reported as “cannot inhibit”.
For the molecule “SEQ ID NO: 2: peptide from proline in the 13th position to methionine in the 20th position of the ART sequence (PTSSEQIM; listed as Homo sapiens)”, the apoptosis-suppressive activity entry in experiment [2] is “strong apoptosis-suppressive activity”. Also, the “STS-induced mitochondrial localization / translocation of Bax” value in experiment [7] is listed as “effect of suppressing SIS-induced mitochondrial translocation of Bax”.
For the molecule VTSSEQIM (ART1320P13V) [SEQ ID NO: 7], the “suppression of STS-induced apoptosis compared with TAT-ART1320 (SEQ ID NO: 2 peptide)” value in experiment [1] is recorded as “stronger suppressive activity”.

B1: HTA1320: E. coli-expressed peptide of ART positions 13 to 20 with HIV-Tat sequence and His sequence (protein)
chain: MRGSHHHHHHGMASMTGGQQMGRDLYDDDDKDRWIRPRDLQLVPWYGRKKRRQRRRPTSSEQIM
modifications: His-Tat-ART13/20(HTA1320)
As for B1, in experiment [9] (low concentrations), the “apoptosis-suppressive activity at low concentrations versus high concentrations” value is given as “almost equivalent to that at high concentrations”. In experiment [9] (various concentrations), the “inhibition of Bax-induced apoptosis-promoting activity” value is given as “inhibited”.
